Assay results: ChEMBL document CHEMBL4483862, “Open-source discovery of chemical leads for next-generation chemoprotective antimalarials” (2018)

Tested on: Plasmodium berghei
Experiment: Luciferase/luciferin-expressing antifolate-resistant parasites were used to infect a culture of HepG2 cells that were pre-incubated with compounds. Infected hepatocytes emit light due to the luciferase reaction. Assay results are presented as the percent inhibition of light emission compared to control. […]
Format: functional
Conditions: sporozoite; for IC90: read-out: LUCIFERASE INFECTION ASSAY - IC90

Compound	IC90 [µM]	other results
Cc1cc(O)nc(N/N=C/c2cc(C)n(CC(F)(F)F)c2C)n1	> 10	IC50 (HEPG2TOX_HILL_SLOPE 2.49, HEPG2TOX_R_SQUARED 0.474, PBLUC_HILL_SLOPE 1.68, PBLUC_R_SQUARED 0.728, read-out: LUCIFERASE INFECTION ASSAY - IC50): 3.36 µM
C/C(=N\NC(N)=S)c1ccc(CC(C)C)cc1	> 13.2	IC50 (HEPG2TOX_HILL_SLOPE 2.45, HEPG2TOX_R_SQUARED 0.895, PBLUC_HILL_SLOPE 1.49, PBLUC_R_SQUARED 0.577, read-out: LUCIFERASE INFECTION ASSAY - IC50): 4.2 µM
COc1ccc(-c2ccnc3n[nH]c(-c4ccccc4)c23)cc1OC	3.3	IC50 (HEPG2TOX_HILL_SLOPE 2.45, HEPG2TOX_R_SQUARED 0.911, PBLUC_HILL_SLOPE 2.73, PBLUC_R_SQUARED 0.663, read-out: LUCIFERASE INFECTION ASSAY - IC50): 1.48 µM
Cc1cc2ccccn2c1C(=O)c1ccc(-c2ccccc2)cc1	3.77	IC50 (HEPG2TOX_HILL_SLOPE 2.45, HEPG2TOX_R_SQUARED 0.945, PBLUC_HILL_SLOPE 19.6, PBLUC_R_SQUARED 0.427, read-out: LUCIFERASE INFECTION ASSAY - IC50): 3.37 µM
CCCCc1ccc2nc(NC(=O)c3cnc(C)cn3)sc2c1	> 10	IC50 (HEPG2TOX_HILL_SLOPE 2.45, HEPG2TOX_R_SQUARED 0.834, PBLUC_HILL_SLOPE 1.44, PBLUC_R_SQUARED 0.354, read-out: LUCIFERASE INFECTION ASSAY - IC50): > 10 µM
COc1ccc(OC)c(-c2cs/c(=N\c3cccc(C)c3C)n2/N=C/c2ccc(C#N)cc2)c1	> 10	IC50 (HEPG2TOX_HILL_SLOPE 2.44, HEPG2TOX_R_SQUARED 0.954, PBLUC_HILL_SLOPE 4.56, PBLUC_R_SQUARED 0.492, read-out: LUCIFERASE INFECTION ASSAY - IC50): 6.34 µM
CCN(CC)S(=O)(=O)c1ccc(C)c(NC(=O)CCc2ncc(-c3ccc(C)cc3)o2)c1	8.55	IC50 (HEPG2TOX_HILL_SLOPE 2.43, HEPG2TOX_R_SQUARED 0.985, PBLUC_HILL_SLOPE 1.82, PBLUC_R_SQUARED 0.587, read-out: LUCIFERASE INFECTION ASSAY - IC50): 2.56 µM
Nc1ccc(OC2=C(Cl)C(=O)c3ccccc3C2=O)cc1	5.91	IC50 (HEPG2TOX_HILL_SLOPE 2.46, HEPG2TOX_R_SQUARED 0.976, PBLUC_HILL_SLOPE 10.6, PBLUC_R_SQUARED 0.396, read-out: LUCIFERASE INFECTION ASSAY - IC50): 4.8 µM
c1csc(-c2cn3c(-c4ccc5ncccc5c4)cnc3cn2)c1	8.95	IC50 (HEPG2TOX_HILL_SLOPE 2.44, HEPG2TOX_R_SQUARED 0.922, PBLUC_HILL_SLOPE 1.55, PBLUC_R_SQUARED 0.705, read-out: LUCIFERASE INFECTION ASSAY - IC50): 2.17 µM
CCOc1ccc2c(c1)O/C(=C\c1cc(Cl)cc3c1OCOC3)C2=O	6.53	IC50 (HEPG2TOX_HILL_SLOPE 2.45, HEPG2TOX_R_SQUARED 0.948, PBLUC_HILL_SLOPE 1.42, PBLUC_R_SQUARED 0.8, read-out: LUCIFERASE INFECTION ASSAY - IC50): 1.39 µM
C/C(=N\NC(=S)Nc1cccc(Cl)c1C)c1cccc(C(F)(F)F)c1	> 10	IC50 (HEPG2TOX_HILL_SLOPE 2.50, 1.90, HEPG2TOX_R_SQUARED 0.489, 0.932, PBLUC_HILL_SLOPE 2.58, PBLUC_R_SQUARED 0.215, read-out: LUCIFERASE INFECTION ASSAY - IC50): 7.21 µM
CC(=O)Nc1ccc(-c2cnc3ccc(-c4cccc(Oc5ccccc5)c4)nn23)cc1	3.35	IC50 (HEPG2TOX_HILL_SLOPE 2.48, HEPG2TOX_R_SQUARED 0.914, PBLUC_HILL_SLOPE 2.88, PBLUC_R_SQUARED 0.663, read-out: LUCIFERASE INFECTION ASSAY - IC50): 1.56 µM
Cc1ccc(CNC(=O)CN2CCCN(Cc3ccc(Cl)cc3)CC2)cc1F	> 10	IC50 (HEPG2TOX_HILL_SLOPE 2.47, HEPG2TOX_R_SQUARED 0.19, PBLUC_HILL_SLOPE 1.42, PBLUC_R_SQUARED 0.29, read-out: LUCIFERASE INFECTION ASSAY - IC50): 4.84 µM
O=[N+]([O-])c1ccc(Oc2cncc(Cl)c2)c(-c2nnc(-c3ccc(C(F)(F)F)cc3)o2)c1	> 7.13	IC50 (HEPG2TOX_HILL_SLOPE 2.45, HEPG2TOX_R_SQUARED 0.932, PBLUC_HILL_SLOPE 14.3, PBLUC_R_SQUARED 0.511, read-out: LUCIFERASE INFECTION ASSAY - IC50): 6.55 µM
CO[C@H]1[C@@H](O)[C@@H](C)O[C@H](O[C@H]2CC[C@]3(C)C4CC[C@]5(C)[C@@H](C6=CC(=O)OC6)CC[C@]5(O)C4CC[C@]3(O)C2)[C@@H]1O (stereo not given in full)	0.258	IC50 (HEPG2TOX_HILL_SLOPE 2.49, HEPG2TOX_R_SQUARED 0.917, PBLUC_HILL_SLOPE 3.98, PBLUC_R_SQUARED 0.716, read-out: LUCIFERASE INFECTION ASSAY - IC50): 0.148 µM
O=C(NC1CC1)c1csc(C(O)c2cccc(OC(F)(F)F)c2)n1 (stereo not given)	0.901	IC50 (HEPG2TOX_HILL_SLOPE 2.47, HEPG2TOX_R_SQUARED 0.742, PBLUC_HILL_SLOPE 2.02, PBLUC_R_SQUARED 0.793, read-out: LUCIFERASE INFECTION ASSAY - IC50): 0.304 µM
CC1=C(C#N)C(/C=N/N(C)c2ncc(C(F)(F)F)cc2Cl)CC(=O)N1 (stereo not given)	3.84	IC50 (HEPG2TOX_HILL_SLOPE 2.47, HEPG2TOX_R_SQUARED 0.965, PBLUC_HILL_SLOPE 13.6, PBLUC_R_SQUARED 0.0536, read-out: LUCIFERASE INFECTION ASSAY - IC50): 3.27 µM
O=S(=O)(Nc1cc(Cl)c(Cl)cc1Cl)c1cc(C(F)(F)F)cc(C(F)(F)F)c1	1.98	IC50 (HEPG2TOX_HILL_SLOPE 2.48, HEPG2TOX_R_SQUARED 0.974, PBLUC_HILL_SLOPE 1.87, PBLUC_R_SQUARED 0.724, read-out: LUCIFERASE INFECTION ASSAY - IC50): 0.611 µM
COc1cc(-c2ccc3ncc(-c4cccs4)n3n2)cc(OC)c1OC	4.08	IC50 (HEPG2TOX_HILL_SLOPE 2.45, HEPG2TOX_R_SQUARED 0.958, PBLUC_HILL_SLOPE 3.17, PBLUC_R_SQUARED 0.64, read-out: LUCIFERASE INFECTION ASSAY - IC50): 2.04 µM
O=C(CSc1ccccc1)Nc1nc2ccccn2c1C(=O)NC1CCCCC1	> 8.08	IC50 (HEPG2TOX_HILL_SLOPE 2.44, HEPG2TOX_R_SQUARED 0.782, PBLUC_HILL_SLOPE 1.51, PBLUC_R_SQUARED 0.873, read-out: LUCIFERASE INFECTION ASSAY - IC50): 2.83 µM
CN(C)C(=O)c1cccc(-c2cn3c(-c4ccc5c(ccn5C)c4)cnc3cn2)c1	> 8.34	IC50 (HEPG2TOX_HILL_SLOPE 2.46, HEPG2TOX_R_SQUARED 0.94, PBLUC_HILL_SLOPE 1.63, PBLUC_R_SQUARED 0.793, read-out: LUCIFERASE INFECTION ASSAY - IC50): 2.64 µM
CCOC(=O)c1c(C)oc2c1cc(OS(=O)(=O)c1ccc(NC(C)=O)cc1)c1ccccc12	9.89	IC50 (HEPG2TOX_HILL_SLOPE 2.44, HEPG2TOX_R_SQUARED 0.99, PBLUC_HILL_SLOPE 3.26, PBLUC_R_SQUARED 0.643, read-out: LUCIFERASE INFECTION ASSAY - IC50): 5.05 µM
Nc1ccc(-c2cnc3ccc(Cc4ccc(F)cc4)nn23)cn1	0.455	IC50 (HEPG2TOX_HILL_SLOPE 2.46, HEPG2TOX_R_SQUARED 0.531, PBLUC_HILL_SLOPE 14.2, PBLUC_R_SQUARED 0.359, read-out: LUCIFERASE INFECTION ASSAY - IC50): 0.39 µM
Cc1ccc(Oc2ccc(OCC(=O)NCCNc3ccc4ccccc4c3)cc2)cc1	6.61	IC50 (HEPG2TOX_HILL_SLOPE 2.47, HEPG2TOX_R_SQUARED 0.879, PBLUC_HILL_SLOPE 3.02, PBLUC_R_SQUARED 0.699, read-out: LUCIFERASE INFECTION ASSAY - IC50): 3.2 µM
Cc1nc(C2CC2)ncc1-c1nc(=Nc2ccccc2)s[nH]1	> 10.7	IC50 (HEPG2TOX_HILL_SLOPE 2.45, HEPG2TOX_R_SQUARED 0.884, PBLUC_HILL_SLOPE 3.42, PBLUC_R_SQUARED 0.283, read-out: LUCIFERASE INFECTION ASSAY - IC50): 7.23 µM
OCc1ccc(-c2cnc3cnc(-c4ccccc4Cl)cn23)cc1	9.11	IC50 (HEPG2TOX_HILL_SLOPE 2.47, HEPG2TOX_R_SQUARED 0.702, PBLUC_HILL_SLOPE 3.47, PBLUC_R_SQUARED 0.368, read-out: LUCIFERASE INFECTION ASSAY - IC50): 4.84 µM
CC(=O)c1cccc(-c2ccc3ncc(-c4cccc(C(F)(F)F)c4)n3n2)c1	0.407	IC50 (HEPG2TOX_HILL_SLOPE 2.43, HEPG2TOX_R_SQUARED 0.95, PBLUC_HILL_SLOPE 15.4, PBLUC_R_SQUARED 0.713, read-out: LUCIFERASE INFECTION ASSAY - IC50): 0.353 µM
COc1ccc(CCC(=O)N(c2nc(-c3ccc(C)cc3)cs2)c2cc(C)ccc2C)cc1OC	4.21	IC50 (HEPG2TOX_HILL_SLOPE 2.48, HEPG2TOX_R_SQUARED 0.955, PBLUC_HILL_SLOPE 14.1, PBLUC_R_SQUARED 0.228, read-out: LUCIFERASE INFECTION ASSAY - IC50): 3.6 µM
Cc1onc(-c2ccccc2)c1-c1ccnc(-c2ccc(Cl)cc2)n1	4.54	IC50 (HEPG2TOX_HILL_SLOPE 2.45, HEPG2TOX_R_SQUARED 0.972, PBLUC_HILL_SLOPE 2.42, PBLUC_R_SQUARED 0.716, read-out: LUCIFERASE INFECTION ASSAY - IC50): 1.83 µM
O=C(Nc1ccc(OCc2ccccc2)cc1)c1csc(C(O)c2cccc(Cl)c2)n1 (stereo not given)	3.73	IC50 (HEPG2TOX_HILL_SLOPE 2.48, HEPG2TOX_R_SQUARED 0.94, PBLUC_HILL_SLOPE 11.3, PBLUC_R_SQUARED 0.644, read-out: LUCIFERASE INFECTION ASSAY - IC50): 3.07 µM
